In ChEMBL document CHEMBL3739345, “Design and synthesis of potent and selective inhibitors of BRD7 and BRD9 bromodomains” (Medchemcomm, 2015):
Calls of active or inactive are those of the source. No cut-off for these calls is given here.

Key:
[1] = biological target: T1, Bromodomain-containing protein 9 (Homo sapiens) (UniProt Q9H8M2); experiment: Binding affinity to human BRD9 assessed as change in melting temperature at 10 uM by differential scanning fluorimetry
T1 sequence (whole entry): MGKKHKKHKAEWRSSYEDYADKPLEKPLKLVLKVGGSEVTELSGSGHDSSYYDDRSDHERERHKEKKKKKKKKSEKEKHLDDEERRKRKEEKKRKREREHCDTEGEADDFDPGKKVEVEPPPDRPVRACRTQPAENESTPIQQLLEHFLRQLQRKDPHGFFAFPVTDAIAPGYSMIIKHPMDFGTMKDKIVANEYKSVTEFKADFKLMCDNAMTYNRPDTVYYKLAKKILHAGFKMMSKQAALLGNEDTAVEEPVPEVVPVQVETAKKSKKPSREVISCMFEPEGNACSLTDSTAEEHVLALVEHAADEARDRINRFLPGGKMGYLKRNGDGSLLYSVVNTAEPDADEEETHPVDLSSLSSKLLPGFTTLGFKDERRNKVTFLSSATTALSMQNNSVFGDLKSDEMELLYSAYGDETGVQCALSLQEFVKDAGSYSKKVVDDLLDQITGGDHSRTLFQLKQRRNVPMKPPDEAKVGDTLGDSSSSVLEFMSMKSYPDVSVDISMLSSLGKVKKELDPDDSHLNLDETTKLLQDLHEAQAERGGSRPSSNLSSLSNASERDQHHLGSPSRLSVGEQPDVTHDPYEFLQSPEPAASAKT

[2] = biological target: T2, Bromodomain-containing protein 9 (Homo sapiens, UniProt Q9H8M2); experiment: Inhibition of human BRD9 by alpha screen assay
T2 sequence (Q9H8M2 whole entry): T1 sequence (whole entry)

[3] = biological target: T3, Bromodomain-containing protein 4 (Homo sapiens, UniProt O60885); experiment: Binding affinity to human BRD4 assessed as change in melting temperature at 10 uM by differential scanning fluorimetry
[4] = biological target: T4, Peregrin (Homo sapiens) (UniProt P55201); experiment: Binding affinity to human BRPF1B assessed as change in melting temperature at 10 uM by differential scanning fluorimetry
T4 sequence (whole entry): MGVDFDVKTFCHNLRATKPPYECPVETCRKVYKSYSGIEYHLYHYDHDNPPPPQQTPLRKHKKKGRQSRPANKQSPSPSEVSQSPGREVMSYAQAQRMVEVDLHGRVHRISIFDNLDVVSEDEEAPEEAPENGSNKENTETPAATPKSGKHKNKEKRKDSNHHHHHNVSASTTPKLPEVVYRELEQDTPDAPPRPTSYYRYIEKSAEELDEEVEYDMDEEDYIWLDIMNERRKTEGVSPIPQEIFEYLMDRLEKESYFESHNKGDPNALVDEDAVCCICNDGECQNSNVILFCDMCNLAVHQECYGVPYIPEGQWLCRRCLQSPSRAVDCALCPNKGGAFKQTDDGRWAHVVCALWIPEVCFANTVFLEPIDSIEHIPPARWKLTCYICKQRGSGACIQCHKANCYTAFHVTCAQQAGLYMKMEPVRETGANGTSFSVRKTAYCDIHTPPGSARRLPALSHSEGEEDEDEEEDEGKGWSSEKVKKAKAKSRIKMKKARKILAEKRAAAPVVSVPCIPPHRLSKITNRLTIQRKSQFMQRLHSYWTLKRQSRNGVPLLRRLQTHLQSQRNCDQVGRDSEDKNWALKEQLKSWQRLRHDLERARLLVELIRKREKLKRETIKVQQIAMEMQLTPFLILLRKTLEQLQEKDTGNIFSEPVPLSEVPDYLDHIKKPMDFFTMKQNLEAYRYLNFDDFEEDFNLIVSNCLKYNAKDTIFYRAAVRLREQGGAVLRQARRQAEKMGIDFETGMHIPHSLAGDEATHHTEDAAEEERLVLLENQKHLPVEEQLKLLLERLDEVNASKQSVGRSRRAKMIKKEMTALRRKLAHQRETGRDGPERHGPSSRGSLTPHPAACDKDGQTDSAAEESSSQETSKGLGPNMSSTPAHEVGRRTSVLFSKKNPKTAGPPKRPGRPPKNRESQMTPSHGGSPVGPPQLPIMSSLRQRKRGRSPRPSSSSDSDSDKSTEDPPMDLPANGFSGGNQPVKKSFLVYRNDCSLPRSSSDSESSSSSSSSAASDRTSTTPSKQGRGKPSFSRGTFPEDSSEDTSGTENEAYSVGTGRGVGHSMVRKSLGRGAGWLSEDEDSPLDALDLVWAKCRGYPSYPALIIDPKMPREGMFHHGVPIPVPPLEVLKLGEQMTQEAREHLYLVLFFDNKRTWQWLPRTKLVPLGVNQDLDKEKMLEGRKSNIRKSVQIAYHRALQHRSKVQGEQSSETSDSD

[5] = biological target: T5, Bromodomain-containing protein 7 (Homo sapiens, UniProt Q9NPI1); experiment: Binding affinity to human BRD7 by isothermal titration calorimetry
T5 sequence (Q9NPI1 whole entry): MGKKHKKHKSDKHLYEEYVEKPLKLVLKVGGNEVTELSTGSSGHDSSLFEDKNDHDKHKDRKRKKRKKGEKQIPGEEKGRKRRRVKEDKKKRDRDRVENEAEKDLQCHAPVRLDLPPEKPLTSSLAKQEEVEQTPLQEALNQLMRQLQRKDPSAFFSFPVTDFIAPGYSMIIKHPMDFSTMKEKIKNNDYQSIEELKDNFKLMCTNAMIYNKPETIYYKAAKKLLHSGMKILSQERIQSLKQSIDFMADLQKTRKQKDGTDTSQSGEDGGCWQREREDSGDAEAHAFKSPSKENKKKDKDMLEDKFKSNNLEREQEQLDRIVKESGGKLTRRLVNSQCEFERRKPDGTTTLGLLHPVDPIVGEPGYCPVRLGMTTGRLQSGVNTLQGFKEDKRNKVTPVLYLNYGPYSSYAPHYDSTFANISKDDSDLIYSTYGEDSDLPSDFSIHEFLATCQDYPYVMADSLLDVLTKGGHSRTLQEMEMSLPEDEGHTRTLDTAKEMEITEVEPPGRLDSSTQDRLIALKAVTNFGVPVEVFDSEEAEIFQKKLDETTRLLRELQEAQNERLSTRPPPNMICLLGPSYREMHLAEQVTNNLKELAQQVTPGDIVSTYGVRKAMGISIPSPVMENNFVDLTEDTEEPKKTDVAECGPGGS

[6] = biological target: T3, Bromodomain-containing protein 4; experiment: Binding affinity to human BRD4 at 15 uM by isothermal titration calorimetry
[7] = biological target: Bromodomain-containing protein 3 (Homo sapiens) (UniProt Q15059); experiment: Binding affinity to human BRD3 at 10 uM by differential scanning fluorimetry
Chain of Bromodomain-containing protein 3 (Homo sapiens) (Q15059 2-726 limits assumed): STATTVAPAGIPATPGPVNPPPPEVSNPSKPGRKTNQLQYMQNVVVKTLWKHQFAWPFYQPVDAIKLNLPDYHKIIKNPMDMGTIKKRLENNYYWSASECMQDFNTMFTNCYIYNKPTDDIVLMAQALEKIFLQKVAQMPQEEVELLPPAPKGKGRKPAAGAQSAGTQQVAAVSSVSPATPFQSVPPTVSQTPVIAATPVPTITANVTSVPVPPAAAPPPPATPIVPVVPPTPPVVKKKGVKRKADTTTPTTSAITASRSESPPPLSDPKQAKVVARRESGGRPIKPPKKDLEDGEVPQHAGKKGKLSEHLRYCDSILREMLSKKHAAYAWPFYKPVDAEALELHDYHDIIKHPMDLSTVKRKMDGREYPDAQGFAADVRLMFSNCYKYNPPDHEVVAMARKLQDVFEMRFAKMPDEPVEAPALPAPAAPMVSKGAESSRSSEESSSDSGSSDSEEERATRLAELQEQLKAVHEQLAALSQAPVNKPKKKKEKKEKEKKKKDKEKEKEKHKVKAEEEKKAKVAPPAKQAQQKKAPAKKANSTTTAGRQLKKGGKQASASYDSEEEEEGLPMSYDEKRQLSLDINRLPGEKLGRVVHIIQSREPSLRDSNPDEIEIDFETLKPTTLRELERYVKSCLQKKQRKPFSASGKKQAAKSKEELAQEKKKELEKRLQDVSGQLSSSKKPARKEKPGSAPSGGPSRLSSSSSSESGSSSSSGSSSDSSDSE

[8] = biological target: Bromodomain adjacent to zinc finger domain protein 2A (Homo sapiens) (UniProt Q9UIF9); experiment: Binding affinity to human BAZ2A at 10 uM by differential scanning fluorimetry
Chain of Bromodomain adjacent to zinc finger domain protein 2A (Homo sapiens) (Q9UIF9 whole entry, the tested form may be a part): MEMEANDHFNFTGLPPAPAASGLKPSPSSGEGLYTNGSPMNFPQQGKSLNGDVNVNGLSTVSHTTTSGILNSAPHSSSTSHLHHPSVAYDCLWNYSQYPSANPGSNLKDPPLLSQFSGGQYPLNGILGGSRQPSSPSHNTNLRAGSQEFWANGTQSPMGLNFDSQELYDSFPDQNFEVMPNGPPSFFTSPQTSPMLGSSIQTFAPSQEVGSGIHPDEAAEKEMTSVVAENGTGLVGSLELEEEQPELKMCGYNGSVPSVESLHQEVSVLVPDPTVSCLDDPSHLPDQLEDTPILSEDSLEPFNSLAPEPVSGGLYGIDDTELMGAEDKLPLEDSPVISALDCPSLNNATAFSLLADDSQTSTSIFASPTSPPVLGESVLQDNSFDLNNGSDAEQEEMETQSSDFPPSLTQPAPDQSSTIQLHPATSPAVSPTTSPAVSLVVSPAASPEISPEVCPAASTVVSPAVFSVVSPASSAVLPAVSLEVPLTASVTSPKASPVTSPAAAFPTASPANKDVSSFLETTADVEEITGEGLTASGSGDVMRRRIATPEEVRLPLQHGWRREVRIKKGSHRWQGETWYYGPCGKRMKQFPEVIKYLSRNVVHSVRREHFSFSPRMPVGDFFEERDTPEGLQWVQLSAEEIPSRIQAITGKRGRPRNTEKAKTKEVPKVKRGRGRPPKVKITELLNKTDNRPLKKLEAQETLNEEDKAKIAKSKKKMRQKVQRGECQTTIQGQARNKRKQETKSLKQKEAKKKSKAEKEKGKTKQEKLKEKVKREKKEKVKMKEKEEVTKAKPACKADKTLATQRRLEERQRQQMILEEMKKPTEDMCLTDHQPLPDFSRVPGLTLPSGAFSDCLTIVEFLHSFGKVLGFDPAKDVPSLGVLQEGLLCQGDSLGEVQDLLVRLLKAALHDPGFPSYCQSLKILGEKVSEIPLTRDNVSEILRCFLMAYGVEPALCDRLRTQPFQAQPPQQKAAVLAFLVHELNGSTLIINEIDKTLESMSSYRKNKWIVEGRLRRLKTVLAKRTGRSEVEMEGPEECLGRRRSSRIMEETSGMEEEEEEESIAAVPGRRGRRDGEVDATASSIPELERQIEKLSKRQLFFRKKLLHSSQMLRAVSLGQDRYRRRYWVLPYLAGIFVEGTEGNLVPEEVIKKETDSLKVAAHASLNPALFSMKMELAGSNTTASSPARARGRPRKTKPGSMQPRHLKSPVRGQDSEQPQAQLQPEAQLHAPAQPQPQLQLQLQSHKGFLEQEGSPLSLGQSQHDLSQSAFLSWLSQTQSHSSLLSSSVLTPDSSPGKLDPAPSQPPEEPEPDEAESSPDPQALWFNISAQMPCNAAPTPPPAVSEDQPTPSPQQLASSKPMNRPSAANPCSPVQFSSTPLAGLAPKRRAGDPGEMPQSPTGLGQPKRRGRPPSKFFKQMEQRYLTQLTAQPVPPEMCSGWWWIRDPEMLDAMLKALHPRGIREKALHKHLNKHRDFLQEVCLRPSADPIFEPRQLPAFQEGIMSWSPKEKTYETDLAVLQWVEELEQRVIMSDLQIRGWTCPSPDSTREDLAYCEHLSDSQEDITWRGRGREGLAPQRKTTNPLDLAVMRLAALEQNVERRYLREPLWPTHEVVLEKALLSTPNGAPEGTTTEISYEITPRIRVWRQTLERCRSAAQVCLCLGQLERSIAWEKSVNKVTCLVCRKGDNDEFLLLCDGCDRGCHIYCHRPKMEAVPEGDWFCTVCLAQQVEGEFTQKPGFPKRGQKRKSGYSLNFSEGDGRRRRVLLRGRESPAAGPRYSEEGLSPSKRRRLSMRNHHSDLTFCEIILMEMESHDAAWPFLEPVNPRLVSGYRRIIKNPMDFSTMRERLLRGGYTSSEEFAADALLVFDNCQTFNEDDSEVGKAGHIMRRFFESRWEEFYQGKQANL

[9] = biological target: CREB-binding protein (Homo sapiens) (UniProt Q92793); experiment: Binding affinity to human CBP assessed as change in melting temperature at 10 uM by differential scanning fluorimetry
Chain of CREB-binding protein (Homo sapiens) (Q92793 2-2442 limits assumed): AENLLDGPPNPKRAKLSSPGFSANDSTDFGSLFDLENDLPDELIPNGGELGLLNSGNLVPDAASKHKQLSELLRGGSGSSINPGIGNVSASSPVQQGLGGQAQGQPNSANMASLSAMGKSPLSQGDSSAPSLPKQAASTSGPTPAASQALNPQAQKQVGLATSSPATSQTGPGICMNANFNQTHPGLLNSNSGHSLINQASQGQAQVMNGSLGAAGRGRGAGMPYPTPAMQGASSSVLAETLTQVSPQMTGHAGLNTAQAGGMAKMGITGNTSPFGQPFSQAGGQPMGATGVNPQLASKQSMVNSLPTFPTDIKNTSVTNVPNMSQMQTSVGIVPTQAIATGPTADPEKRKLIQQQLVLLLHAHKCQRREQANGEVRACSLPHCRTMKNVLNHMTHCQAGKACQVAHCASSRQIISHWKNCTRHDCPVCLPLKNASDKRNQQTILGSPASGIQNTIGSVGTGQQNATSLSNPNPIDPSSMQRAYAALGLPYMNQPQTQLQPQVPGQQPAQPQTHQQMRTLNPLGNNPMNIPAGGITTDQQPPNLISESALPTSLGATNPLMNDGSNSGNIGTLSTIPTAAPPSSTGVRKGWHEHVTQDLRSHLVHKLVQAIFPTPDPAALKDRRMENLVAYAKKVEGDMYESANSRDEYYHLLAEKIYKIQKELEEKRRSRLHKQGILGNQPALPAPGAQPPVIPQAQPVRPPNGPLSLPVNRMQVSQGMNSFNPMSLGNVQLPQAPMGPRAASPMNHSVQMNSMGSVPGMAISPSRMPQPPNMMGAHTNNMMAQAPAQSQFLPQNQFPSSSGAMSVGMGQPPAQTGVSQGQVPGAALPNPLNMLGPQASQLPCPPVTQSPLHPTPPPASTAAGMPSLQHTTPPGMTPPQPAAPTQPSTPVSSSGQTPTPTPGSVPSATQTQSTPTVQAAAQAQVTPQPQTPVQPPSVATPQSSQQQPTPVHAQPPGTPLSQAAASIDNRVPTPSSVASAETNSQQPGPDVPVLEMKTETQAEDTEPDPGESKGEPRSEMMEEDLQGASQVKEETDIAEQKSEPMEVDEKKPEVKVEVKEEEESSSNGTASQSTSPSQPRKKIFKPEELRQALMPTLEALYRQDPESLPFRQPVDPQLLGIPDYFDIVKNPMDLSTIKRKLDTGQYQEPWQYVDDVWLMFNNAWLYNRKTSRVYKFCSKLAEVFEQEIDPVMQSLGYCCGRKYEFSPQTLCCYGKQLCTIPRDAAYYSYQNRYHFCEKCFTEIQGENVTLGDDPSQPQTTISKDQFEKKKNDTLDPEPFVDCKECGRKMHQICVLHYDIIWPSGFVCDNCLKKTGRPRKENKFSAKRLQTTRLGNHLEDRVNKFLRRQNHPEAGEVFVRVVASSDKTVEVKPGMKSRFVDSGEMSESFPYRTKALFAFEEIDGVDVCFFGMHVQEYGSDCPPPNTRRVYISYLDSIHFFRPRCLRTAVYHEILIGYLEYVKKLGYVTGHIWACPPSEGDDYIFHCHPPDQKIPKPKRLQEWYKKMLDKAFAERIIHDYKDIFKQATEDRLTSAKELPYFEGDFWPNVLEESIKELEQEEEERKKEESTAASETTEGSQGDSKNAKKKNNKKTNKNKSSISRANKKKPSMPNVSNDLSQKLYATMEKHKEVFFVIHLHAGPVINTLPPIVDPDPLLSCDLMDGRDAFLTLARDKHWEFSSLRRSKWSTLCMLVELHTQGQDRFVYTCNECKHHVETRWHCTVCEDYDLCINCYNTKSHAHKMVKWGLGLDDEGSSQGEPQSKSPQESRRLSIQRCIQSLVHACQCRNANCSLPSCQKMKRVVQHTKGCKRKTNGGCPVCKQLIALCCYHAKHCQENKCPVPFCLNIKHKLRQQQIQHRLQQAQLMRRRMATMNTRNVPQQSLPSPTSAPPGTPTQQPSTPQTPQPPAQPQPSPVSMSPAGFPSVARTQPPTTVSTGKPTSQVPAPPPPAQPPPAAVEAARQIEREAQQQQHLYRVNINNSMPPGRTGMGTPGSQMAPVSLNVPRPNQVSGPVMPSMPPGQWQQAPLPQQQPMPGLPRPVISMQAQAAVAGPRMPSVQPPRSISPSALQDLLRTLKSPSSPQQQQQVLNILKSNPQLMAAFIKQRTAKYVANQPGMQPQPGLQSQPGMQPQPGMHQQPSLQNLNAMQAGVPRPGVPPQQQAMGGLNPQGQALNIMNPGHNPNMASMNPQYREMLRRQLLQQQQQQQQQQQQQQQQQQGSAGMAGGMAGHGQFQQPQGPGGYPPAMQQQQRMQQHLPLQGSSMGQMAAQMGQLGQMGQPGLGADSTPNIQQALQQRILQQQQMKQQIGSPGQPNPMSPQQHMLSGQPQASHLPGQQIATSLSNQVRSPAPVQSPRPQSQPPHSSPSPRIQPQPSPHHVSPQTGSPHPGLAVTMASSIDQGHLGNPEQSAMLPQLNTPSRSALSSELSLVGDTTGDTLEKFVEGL

ΔTm [1]: 4.5 °C
IC50 [2]: 0.126 µM
ΔTm [3]: 1.3 °C
ΔTm [4]: 1.7 °C
Kd [5]: 0.368 µM
Activity [6]: inactive
Activity [7]: Active
Activity [8]: Active
ΔTm [9]: 1.8 °C
SMILES: CC(=O)c1cc(-c2cccc3nccn23)c2cc(N3CCOCC3)ccn12
